Results taken from the SangsterLogP compilation.

experiment: method code SF-AS, from DOI: 10.1021/bi00362a019, PMID: 3017413

Row | SMILES | logP
1 | N=C(N)NN=Cc1ccc(-c2ccccc2)cc1 | 1.49
2 | NC(N)=N/N=C/c1ccccc1[N+](=O)[O-] | 0.53
3 | NC(N)=N/N=C/c1ccc([N+](=O)[O-])cc1 | 0.87
4 | CC(C)(C)Oc1ccc(/C=N/N=C(N)N)cc1 | 1.38
5 | COc1ccc(/C=N/N=C(N)N)cc1 | 0.29
6 | NC(N)=N/N=C/c1ccc(Cl)c([N+](=O)[O-])c1 | 0.53
7 | NC(N)=N/N=C/c1ccc(Oc2ccccc2)cc1 | 1.87
8 | CCOc1ccc(/C=N/N=C(N)N)cc1 | 0.24
9 | CN(C)c1ccc(/C=N/N=C(N)N)cc1 | 0.28
10 | N=C(N)NN=Cc1ccc(Cl)cc1 | 0.96
11 | CCN(CC)c1ccc(C=NN=C(N)N)cc1 | 0.56
12 | NC(N)=N/N=C/c1cccc([N+](=O)[O-])c1 | 0.01
13 | NC(N)=N/N=C/c1ccc(Br)cc1 | 1.3
